Some test systems named below: OVCAR-8 ovarian; IGROV1 ovarian; LOX IMVI melanoma; HS 578T breast; RXF 393 renal; NCI-H23 lung; NCI-H460 lung; OVCAR-4 ovarian; HCT-116 colon; SF-539 CNS.
Common to all, as to assay: NCI-60 cell line screen, 48 h

Each structure is given as a SMILES string.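 Tested at 5 concentrations; 48 h exposure; 96-well plates; endpoints linearly interpolated, else capped at highest concentration. Definition used: TGI = concentration required for complete inhibition of growth.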 Where a SMILES comes first, the peptide text is derived from it. The star is where a group is joined. Boc = CC(C)(C)OC(=O)*

Take `Cn1c2ccc(F)cc2c2ccc3c(c21)C(=O)C=CC3=O`: the TGI in the assay on OVCAR-8 ovarian is 26.1 µM; with IGROV1 ovarian it was 39 µM; with LOX IMVI melanoma it was 22.8 µM; with HS 578T breast, more than 86.5 µM; in the assay on RXF 393 renal, 10.5 µM; with NCI-H23 lung it was 31.4 µM. In addition, the TGI in the assay on NCI-H460 lung was more than 100 µM; in the assay on OVCAR-4 ovarian, 11.1 µM; with HCT-116 colon, 20.3 µM; in the assay on SF-539 CNS it was 35.8 µM.
Take `CN1CCN(C(=O)CCC(=O)Nc2cc3c(c4ccccc24)-c2ccc4ccccc4c2C3)CC1`: the TGI was determined as 4.38 µM in the assay on OVCAR-8 ovarian; 2.74 µM in the assay on IGROV1 ovarian; 4.04 µM in the assay with LOX IMVI melanoma; 5.81 µM in the assay on HS 578T breast; 3.45 µM in the assay with RXF 393 renal; 3.47 µM in the assay on NCI-H23 lung. For the same molecule, the TGI with NCI-H460 lung came to 3.72 µM; in the assay on OVCAR-4 ovarian it was 3.08 µM; in the assay with HCT-116 colon, 2.95 µM; in the assay with SF-539 CNS, 3.13 µM.
On to `Cc1cc2nc3c(C#N)c4c(c(Nc5ccc(F)cc5)n3c2cc1C)CCC4`, for which the TGI in the assay on OVCAR-8 ovarian, in the assay with IGROV1 ovarian, with LOX IMVI melanoma, in the assay with HS 578T breast, in the assay on RXF 393 renal and in the assay on NCI-H23 lung was more than 100 µM throughout. The TGI in the assay with NCI-H460 lung, in the assay on OVCAR-4 ovarian, with HCT-116 colon and in the assay with SF-539 CNS was more than 100 µM each time.
Regarding `Clc1ccc(CCNC2(c3cc4ccccc4s3)CCCCC2)cc1Cl`, the TGI in the assay on OVCAR-8 ovarian is more than 100 µM; in the assay on IGROV1 ovarian, more than 100 µM; in the assay on LOX IMVI melanoma, 35.6 µM; in the assay with HS 578T breast it was more than 100 µM; in the assay on RXF 393 renal, 36.7 µM; in the assay with NCI-H23 lung, more than 100 µM. Besides, the TGI in the assay on NCI-H460 lung is 40.3 µM; in the assay with OVCAR-4 ovarian, more than 100 µM; in the assay on HCT-116 colon it was 29.3 µM; in the assay with SF-539 CNS it was 46.7 µM.
Turning to `COC(=O)C(Cc1ccccc1)NC(=O)C(CS)NC(=O)OC(C)(C)C` (stereo not drawn) (Boc-Cys-Phe-OMe; configuration not given here), the TGI in the assay on OVCAR-8 ovarian, in the assay on IGROV1 ovarian, in the assay on LOX IMVI melanoma, in the assay with HS 578T breast, in the assay with RXF 393 renal and with NCI-H23 lung was more than 100 µM throughout. The TGI with NCI-H460 lung, in the assay with OVCAR-4 ovarian, with HCT-116 colon and in the assay on SF-539 CNS was more than 100 µM throughout.

(Values after PubChem BioAssay (NCI).)
